US11584710B2, “Compounds for treating infections” (HORITZONTS TECNOLOGICS HUNGARY KORLÁTOLT FELELOSSÉGU …, priority 2017, dated 2023)

Legend:
Assay type in all cases: cell-based
A. flavus = test: Antifungal disk diffusion susceptibility test (CLSI M44); conditions: Aspergillus flavus, A. flavus; for zone of inhibition at 150 µg/disc: 150 μg/disc; for zone of inhibition at 500 µg/disc: 500 μg/disc
Procedure: (§1) Filamentous fungi and yeasts strains, from clinical origin, were supplied by Microbiology Service from The Princess Hospital, Madrid. They are detailed in Table IX.
(§2) Filamentous fungi and yeast cells suspensions in distilled water was prepared from a culture of 24-48 h, depending on species, in Sabouraud agar. Each suspension was adjusted to a fixed size inoculum of 1-5×10^8 CFU/ml with a spectrophotometer (Ferraro, MJ National Committee for Clinical Laboratory Standards. 2000).
(§3) Antifungal susceptibility tests were developed following the standardized methodology detailed in document CLSI: M44-4: Method for Antifungal Disk diffusion susceptibility testing of yeasts consisting of disk diffusion on agar Muller-Hinton (supplemented with 2% glucose).

A. fumigatus = test: as above; conditions: Aspergillus fumigatus, A. fumigatus; for zone of inhibition at 150 µg/disc: 150 μg/disc; for zone of inhibition at 500 µg/disc: 500 μg/disc
Procedure: as §1, §2, §3

A. niger = test: as above; conditions: Aspergillus niger, A. niger; for zone of inhibition at 150 µg/disc: 150 μg/disc; for zone of inhibition at 500 µg/disc: 500 μg/disc
Procedure: as §1, §2, §3

A. terreus = test: as above; conditions: Aspergillus terreus, A. terreus; for zone of inhibition at 150 µg/disc: 150 μg/disc; for zone of inhibition at 500 µg/disc: 500 μg/disc
Procedure: as §1, §2, §3

C. albicans = test: as above; conditions: Candida albicans, C. albicans; for zone of inhibition at 150 µg/disc: 150 μg/disc; for zone of inhibition at 500 µg/disc: 500 μg/disc
Procedure: as §1, §2, §3

C. guillermondii = test: as above; conditions: C. guillermondii; for zone of inhibition at 150 µg/disc: 150 μg/disc; for zone of inhibition at 500 µg/disc: 500 μg/disc
Procedure: as §1, §2, §3

C. lusitaniae = test: as above; conditions: Clavispora lusitaniae, C. lusitaniae; for zone of inhibition at 150 µg/disc: 150 μg/disc; for zone of inhibition at 500 µg/disc: 500 μg/disc
Procedure: as §1, §2, §3

C. parapsilosis = test: as above; conditions: Lodderomyces parapsilosis, C. parapsilosis; for zone of inhibition at 150 µg/disc: 150 μg/disc; for zone of inhibition at 500 µg/disc: 500 μg/disc
Procedure: as §1, §2, §3

C. tropicalis = test: as above; conditions: Candida tropicalis, C. tropicalis; for zone of inhibition at 150 µg/disc: 150 μg/disc; for zone of inhibition at 500 µg/disc: 500 μg/disc
Procedure: as §1, §2, §3

S. cerevisiae = test: as above; conditions: Saccharomyces cerevisiae, S. cerevisiae; for zone of inhibition at 150 µg/disc: 150 μg/disc; for zone of inhibition at 500 µg/disc: 500 μg/disc
Procedure: as §1, §2, §3

A. baumannii = test: Kirby-Bauer disk diffusion susceptibility test; conditions: 300 μg/disc
Procedure: (§4) Bacterial strains, from clinical origin, were supplied by the National Center for Microbiology, Institute of Health Carlos III (Majadahonda, Madrid). They are detailed in Table 1.
(§5) Bacterial cells suspension in sterile saline was prepared from a culture of 24-72 h, depending on bacterial species, in Mueller-Hinton Agar with 5% sheep blood. Each suspension was adjusted to a fixed size inoculum of 1-5×10^8 CFU/ml with a spectrophotometer (Ferraro, MJ National Committee for Clinical Laboratory Standards. 2000).
(§6) Kirby-Bauer disk diffusion susceptibility test protocol was utilized to determine the sensitivity or resistance of pathogenic bacteria against the compounds and others antibiotics. The absence of growth around the disks is an indirect measure of the ability of this compound to inhibit an organism (Kirby, W., et al., Antibiotics Annu. 1956-1957:892). After 18 to 72 hours of incubation at 37° C., with or without CO2, under aerobic or anaerobic conditions, depending on the bacterial species, halo of growth inhibition were obtained and evaluated.
(§7) Interpretation of susceptibility and resistance was based on the presence or absence of a zone of inhibition surrounding the disk. Kirby-Bauer disk diffusion susceptibility test is a common method which uses antibiotic-impregnated wafers to test whether bacteria are affected by antibiotics. The size of the zone of inhibition depends on how effective the antibiotic is at stopping the growth of the bacterium. A stronger antibiotic will create a larger zone, because a lower concentration of the antibiotic is enough to stop growth.
(§8) All compounds were tested at 300 μg/disc.

N. carnea = test: Kirby-Bauer disk diffusion susceptibility test; conditions: 300 μg/disc
Procedure: as §4, §5, §6, §7, §8

N. cyriacigeorgica = test: Kirby-Bauer disk diffusion susceptibility test; conditions: 300 μg/disc
Procedure: as §4, §5, §6, §7, §8

S. pneumoniae = test: Kirby-Bauer disk diffusion susceptibility test; conditions: 300 μg/disc
Procedure: as §4, §5, §6, §7, §8

T. pulmonis = test: Kirby-Bauer disk diffusion susceptibility test; conditions: 300 μg/disc
Procedure: as §4, §5, §6, §7, §8

K. pneumoniae = test: Kirby-Bauer disk diffusion susceptibility test; conditions: 300 μg/disc
Procedure: as §4, §5, §6, §7, §8

| Compound | zone of inhibition at 150 µg/disc (A. flavus) | zone of inhibition at 500 µg/disc (A. flavus) | zone of inhibition at 150 µg/disc (A. fumigatus) | zone of inhibition at 500 µg/disc (A. fumigatus) | zone of inhibition at 150 µg/disc (A. niger) | zone of inhibition at 500 µg/disc (A. niger) | zone of inhibition at 150 µg/disc (A. terreus) | zone of inhibition at 500 µg/disc (A. terreus) | zone of inhibition at 150 µg/disc (C. albicans) | zone of inhibition at 500 µg/disc (C. albicans) | zone of inhibition at 150 µg/disc (C. guillermondii) | zone of inhibition at 500 µg/disc (C. guillermondii) | zone of inhibition at 150 µg/disc (C. lusitaniae) | zone of inhibition at 500 µg/disc (C. lusitaniae) | zone of inhibition at 150 µg/disc (C. parapsilosis) | zone of inhibition at 500 µg/disc (C. parapsilosis) | zone of inhibition at 150 µg/disc (C. tropicalis) | zone of inhibition at 500 µg/disc (C. tropicalis) | zone of inhibition at 150 µg/disc (S. cerevisiae) | zone of inhibition at 500 µg/disc (S. cerevisiae) | other results |
| --- | --- | --- | --- | --- | --- | --- | --- | --- | --- | --- | --- | --- | --- | --- | --- | --- | --- | --- | --- | --- | --- |
| NNC(=O)CC(=O)NNc1ccccc1 [MSG-187] | < 10 mm | 36 mm | < 10 mm | 32 mm | < 10 mm | 40 mm | < 10 mm | < 10 mm | < 10 mm | 22 mm | < 10 mm | 22 mm | < 10 mm | 20 mm | < 10 mm | 17 mm | < 10 mm | 18 mm | < 10 mm | < 10 mm |  |
| NNC(=O)C(=O)NNc1ccc(Cl)cc1 [MSG-214] | < 10 mm | < 10 mm | < 10 mm | 16 mm | 10 mm | > 40 mm | < 10 mm | 17 mm | 40 mm | > 40 mm | 15 mm | > 40 mm | 42 mm | > 40 mm | 15 mm | > 40 mm | 34 mm | > 40 mm | 15 mm | 32 mm | Activity detected (mm) (A. baumannii): 12 mm; Activity detected (mm) (N. carnea): 14 mm; Activity detected (mm) (N. cyriacigeorgica): 25 mm; Activity detected (mm) (S. pneumoniae): 11 mm; Activity detected (mm) (T. pulmonis): 30 mm |
| Cc1ccc(NNC(=O)C(=O)NN)cc1 [MSG-218] | < 10 mm | < 10 mm | < 10 mm | 10 mm | 22 mm | 30 mm | < 10 mm | 10 mm | 24 mm | > 40 mm | 22 mm | 40 mm | 22 mm | 46 mm | 25 mm | 36 mm | 10 mm | 40 mm | 24 mm | 34 mm | Activity detected (mm) (A. baumannii): 15 mm; Activity detected (mm) (T. pulmonis): 33 mm |
| COc1ccc(NNC(=O)C(=O)NN)cc1 [MSG-210] | 10 mm | 9 mm | 10 mm | 16 mm | 27 mm | 40 mm | 19 mm | 22 mm | 32 mm | > 40 mm | 32 mm | 35 mm | 39 mm | > 40 mm | 28 mm | 32 mm | 34 mm | 36 mm | 28 mm | 30 mm | Activity detected (mm) (A. baumannii): 18 mm; Activity detected (mm) (N. carnea): 11 mm; Activity detected (mm) (N. cyriacigeorgica): 15 mm; Activity detected (mm) (T. pulmonis): 20 mm |
| NNC(=O)C(=O)NNc1ccc(Br)cc1 [MSG-216] | < 10 mm | < 10 mm | < 10 mm | 10 mm | 10 mm | 36 mm | < 10 mm | 10 mm | 24 mm | > 40 mm | 13 mm | > 40 mm | 36 mm | > 40 mm | 11 mm | > 40 mm | 26 mm | > 40 mm | 19 mm | 35 mm | Activity detected (mm) (A. baumannii): 12 mm; Activity detected (mm) (K. pneumoniae): 11 mm; Activity detected (mm) (N. carnea): 14 mm; Activity detected (mm) (N. cyriacigeorgica): 17 mm; Activity detected (mm) (T. pulmonis): 25 mm |
| NNC(=O)C(=O)NNc1ccc(F)cc1 [MSG-193] | 15 mm | > 40 mm | 20 mm | > 40 mm | 15 mm | > 40 mm | 12 mm | 32 mm | 20 mm | > 40 mm | 20 mm | 40 mm | 15 mm | > 40 mm | 18 mm | > 40 mm | 30 mm | > 40 mm | 22 mm | 40 mm |  |
| COc1cccc(NNC(=O)C(=O)NN)c1 [MSG-227] | 25 mm | > 40 mm | 11 mm | > 40 mm | 32 mm | > 40 mm | > 40 mm | > 40 mm | 26 mm | > 40 mm | > 40 mm | > 40 mm | > 40 mm | > 40 mm | 31 mm | > 40 mm | 26 mm | > 40 mm | 20 mm | 25 mm |  |
